Data on 29 molecules can be found in patent US20250179061A1 (SIRONAX LTD., priority 2022, published 2025).

Like-named read-outs stand apart in the source and are kept apart here.

The subject of this assay is HT-29 cells. Kind of assay: HT-29 necroptosis cell viability assay (TNF-α/SMAC mimetic/zVAD-FMK, CellTiter-Glo). In kind it is cell-based. The following applies: Homo sapiens. The method, boiled down: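 Necroptosis was triggered by TNF-α (10 ng/ml), SMAC mimetic (6 μM) and zVAD-FMK (10 μM) in serum-free medium during 20 h compound exposure (10 concentrations, threefold steps) of HT-29 cells. IC50 from duplicate dose-responses uses CellTiter-Glo ATP luminescence as viability read-out.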
In general terms: In ATP-based viability assays light output follows the ATP content of the culture.

Where [1] appears, read: HT-29 cells stimulated with TNF-α (10 ng/ml), SMAC mimetic (6 μM) and zVAD-FMK (10 μM), 20 hours, CellTiter-Glo ATP luminescence, geometric mean IC50 from 10 points, read-out: Activity.
Setting [2] is: HT-29, HT-29 necroptosis cell viability assay, class symbols for IC50, read-out: Activity.
[3] abbreviates: HT-29, HT-29 necroptosis cell viability, IC50 class symbols, read-out: Activity.

Take `Cc1nc(N2CC([C@H](C)O)C2)sc1Oc1ccc(-n2ncn(Cc3c(F)cccc3F)c2=O)cc1` [Example 52, (S)-4-(2,6-difluorobenzyl)-2-(4-((2-(3-(1-hydroxyethyl)azetidin-1-yl)-4-methylthiazol-5-yl)oxy)phenyl)-2,4-dihydro-3H-1,2,4-triazol-3-one]: the IC50 under setting [1] is below 100 nM.
Consider `O=c1n(Cc2c(F)cccc2F)cnn1-c1ccc(Oc2scnc2CO)c(F)c1` [Example 145, 4-(2,6-difluorobenzyl)-2-(3-fluoro-4-((4-(hydroxymethyl)thiazol-5-yl)oxy)phenyl)-2,4-dihydro-3H-1,2,4-triazol-3-one], for which the IC50 under setting [2] was below 100 nM.
As for `Cc1nc(C(N)=O)sc1Oc1ccc(-n2ncn(Cc3c(F)cccc3F)c2=O)cc1` [Example 560, 5-(4-(4-(2,6-difluorobenzyl)-5-oxo-4,5-dihydro-1H-1,2,4-triazol-1-yl)phenoxy)-4-methylthiazole-2-carboxamide], the IC50 under setting [2] is below 100 nM.
Same read-out and setting: then `Cc1cc(C(=O)O)nn1Cc1ccc(-n2ncn(Cc3c(F)cccc3F)c2=O)cc1F` [Example 216, 1-(4-(4-(2,6-difluorobenzyl)-5-oxo-4,5-dihydro-1H-1,2,4-triazol-1-yl)-2-fluorobenzyl)-5-methyl-1H-pyrazole-3-carboxylic acid], with 1000 to 10000 nM; and `Cc1nc(C(=O)N(C)C)sc1Oc1ccc(-n2ncn(Cc3c(F)cccc3F)c2=O)cc1F` [Example 611, 5-(4-(4-(2,6-difluorobenzyl)-5-oxo-4,5-dihydro-1H-1,2,4-triazol-1-yl)-2-fluorophenoxy)-N,N,4-trimethylthiazole-2-carboxamide], with below 100 nM.
As to `Cc1nc(N2C[C@H](F)[C@@H]2C)sc1Oc1ccc(-n2ncn(Cc3c(F)cccc3F)c2=O)cc1` [Example 51, 4-(2,6-difluorobenzyl)-2-(4-((2-((2S,3S)-3-fluoro-2-methylazetidin-1-yl)-4-methylthiazol-5-yl)oxy)phenyl)-2,4-dihydro-3H-1,2,4-triazol-3-one], under setting [1], the IC50 is below 100 nM.
In the case of `O=c1n(Cc2c(F)cccc2F)cnn1-c1ccc(Oc2ccnc(OCC3CC3)c2)cc1` [Example 347, 2-(4-((2-(cyclopropylmethoxy)pyridin-4-yl)oxy)phenyl)-4-(2,6-difluorobenzyl)-2,4-dihydro-3H-1,2,4-triazol-3-one], under setting [3], the IC50 is below 100 nM.
On to `Cc1nc(C(C)(C)O)sc1Oc1ccc(-n2ncn(Cc3ccccc3C#N)c2=O)cc1F` [Example 584, 2-((1-(3-fluoro-4-((2-(2-hydroxypropan-2-yl)-4-methylthiazol-5-yl)oxy)phenyl)-5-oxo-1,5-dihydro-4H-1,2,4-triazol-4-yl)methyl)benzonitrile], for which, under setting [2], the IC50 fell in the range of 100 to 1000 nM.
In the case of `CC1(N)CN(c2cc(Oc3ccc(-n4ncn(Cc5c(F)cccc5F)c4=O)cc3F)c(C#N)cn2)C1` [Example 396, 6-(3-amino-3-methylazetidin-1-yl)-4-(4-(4-(2,6-difluorobenzyl)-5-oxo-4,5-dihydro-1H-1,2,4-triazol-1-yl)-2-fluorophenoxy)nicotinonitrile], the IC50 under setting [3] lay within 100 to 1000 nM.
Still for that read-out and setting: then `O=c1n(Cc2c(F)cccc2F)cnn1-c1ccc(Oc2ccnc(NCC3CCO3)c2)cc1` (centres unmarked) [Example 279, 4-(2,6-difluorobenzyl)-2-(4-((2-((oxetan-2-ylmethyl)amino)pyridin-4-yl)oxy)phenyl)-2,4-dihydro-3H-1,2,4-triazol-3-one], with 100 to 1000 nM; and `Cc1nc(C(C)(C)O)sc1Oc1ccc(-n2ncn(Cc3ccccc3F)c2=O)cc1F` [Example 469, 2-(3-fluoro-4-((2-(2-hydroxypropan-2-yl)-4-methylthiazol-5-yl)oxy)phenyl)-4-(2-fluorobenzyl)-2,4-dihydro-3H-1,2,4-triazol-3-one], with below 100 nM.
For `CC(C)(C)CC(=O)Nc1cc(Oc2ccc(-n3ncn(Cc4c(F)cccc4F)c3=O)cc2)ccn1` [Example 519, N-[4-[4-[4-[(2,6-difluorophenyl)methyl]-5-oxo-1,2,4-triazol-1-yl]phenoxy]-2-pyridyl]-3,3-dimethyl-butanamide], the IC50 under setting [2] was 100 to 1000 nM.
Regarding `O=c1n(Cc2c(F)cccc2F)cnn1-c1ccc(Oc2scnc2C(F)F)c(F)c1` [Example 147, 4-(2,6-difluorobenzyl)-2-(4-((4-(difluoromethyl)thiazol-5-yl)oxy)-3-fluorophenyl)-2,4-dihydro-3H-1,2,4-triazol-3-one], the IC50 under setting [2] was below 100 nM.
On to `Cc1cnn(C)c1Oc1ccc(-n2ncn(Cc3c(F)cccc3F)c2=O)cc1` [Example 176, 4-(2,6-difluorobenzyl)-2-(4-((1,4-dimethyl-1H-pyrazol-5-yl)oxy)phenyl)-2,4-dihydro-3H-1,2,4-triazol-3-one], for which the IC50 under setting [2] was below 100 nM.
Regarding `O=c1n(Cc2c(F)cccc2F)cnn1-c1ccc(Oc2cc(N3CC4(COC4)C3)ncc2F)c(F)c1` [Example 237, 4-(2,6-difluorobenzyl)-2-(3-fluoro-4-((5-fluoro-2-(2-oxa-6-azaspiro[3.3]heptan-6-yl)pyridin-4-yl)oxy)phenyl)-2,4-dihydro-3H-1,2,4-triazol-3-one], the IC50 under setting [3] is below 100 nM.
Turning to `N#CC1(F)CN(c2cc(Oc3ccc(-n4ncn(Cc5c(F)cccc5F)c4=O)cc3)ccn2)C1` [Example 252, 1-(4-(4-(4-(2,6-difluorobenzyl)-5-oxo-4,5-dihydro-1H-1,2,4-triazol-1-yl)phenoxy)pyridin-2-yl)-3-fluoroazetidine-3-carbonitrile], the IC50 under setting [3] lay in the range of 100 to 1000 nM.
With `CC1(Nc2cc(Oc3ccc(-n4ncn(Cc5c(F)cccc5F)c4=O)cc3)ccn2)COC1` [Example 531, 4-(2,6-difluorobenzyl)-2-(4-((2-((3-methyloxetan-3-yl)amino)pyridin-4-yl)oxy)phenyl)-2,4-dihydro-3H-1,2,4-triazol-3-one], under setting [2], the IC50 is above 10000 nM.
With `C[C@H]1[C@@H](O)CN1c1cc(Oc2ncc(-n3ncn(Cc4c(F)cccc4F)c3=O)cc2F)ccn1` [Example 250, 4-(2,6-difluorobenzyl)-2-(5-fluoro-6-((2-((2S,3S)-3-hydroxy-2-methylazetidin-1-yl)pyridin-4-yl)oxy)pyridin-3-yl)-2,4-dihydro-3H-1,2,4-triazol-3-one], the IC50 under setting [3] was below 100 nM.
Take `Cc1nc(C(N)=O)sc1Oc1ccc(-n2nc3n(c2=O)C(c2ccccc2)CC3F)cc1F` (centres unmarked) [Example 81, 5-(2-fluoro-4-(7-fluoro-3-oxo-5-phenyl-3,5,6,7-tetrahydro-2H-pyrrolo[2,1-c][1,2,4]triazol-2-yl)phenoxy)-4-methylthiazole-2-carboxamide]: the IC50 under setting [1] is below 100 nM.
For the molecule `Cc1c(C#N)cnn1Cc1ccc(-n2ncn(Cc3c(F)cccc3F)c2=O)cc1` [Example 191, 1-(4-(4-(2,6-difluorobenzyl)-5-oxo-4,5-dihydro-1H-1,2,4-triazol-1-yl)benzyl)-5-methyl-1H-pyrazole-4-carbonitrile], the IC50 under setting [2] is below 100 nM.
On the same count and under the same terms, the result for `COc1cc(S(=O)(=O)c2ccc(-n3ncn(Cc4c(F)cccc4F)c3=O)cc2)ccn1` [Example 618, 4-(2,6-difluorobenzyl)-2-(4-((2-methoxypyridin-4-yl)sulfonyl)phenyl)-2,4-dihydro-3H-1,2,4-triazol-3-one] reads below 100 nM; that for `Cc1nc(C(C)(C)O)c(Oc2ccc(-n3ncn(Cc4c(F)cccc4F)c3=O)cc2F)s1` [Example 126, 4-(2,6-difluorobenzyl)-2-(3-fluoro-4-((4-(2-hydroxypropan-2-yl)-2-methylthiazol-5-yl)oxy)phenyl)-2,4-dihydro-3H-1,2,4-triazol-3-one], 100 to 1000 nM.
Turning to `N#CC1CC(Nc2cc(Oc3ccc(-n4ncn(Cc5c(F)cccc5F)c4=O)cc3)ccn2)C1` (centres unmarked) [Example 351, 3-((4-(4-(4-(2,6-difluorobenzyl)-5-oxo-4,5-dihydro-1H-1,2,4-triazol-1-yl)phenoxy)pyridin-2-yl)amino)cyclobutane-1-carbonitrile], the IC50 under setting [3] fell in the range of 100 to 1000 nM.
With `Cc1nc(Br)sc1Oc1ncc(-n2ncn(Cc3c(F)cccc3F)c2=O)cc1F` [Example 645, 2-(6-((2-bromo-4-methylthiazol-5-y1)oxy)-5-fluoropyridin-3-yl)-4-(2,6-difluorobenzyl)-2,4-dihydro-3H-1,2,4-triazol-3-one], the IC50 (HT-29, HT-29 cells, necroptosis induced by TNF-α/SMAC mimetic/zVAD-FMK, CellTiter-Glo, read-out: Activity (IC50 class)) is below 100 nM.
With `Cc1nc(N2C[C@H](C#N)[C@@H]2C)sc1Cc1ccc(-n2ncn(Cc3c(F)cccc3F)c2=O)cc1` [Example 63, (2S,3S)-1-(5-(4-(4-(2,6-difluorobenzyl)-5-oxo-4,5-dihydro-1H-1,2,4-triazol-1-yl)benzyl)-4-methylthiazol-2-yl)-2-methylazetidine-3-carbonitrile], the IC50 under setting [1] is below 100 nM.
For the molecule `N#CC1(CO)CN(c2cc(Oc3ccc(-n4ncn(Cc5c(F)cccc5F)c4=O)cc3)ccn2)C1` [Example 278, 1-(4-(4-(4-(2,6-difluorobenzyl)-5-oxo-4,5-dihydro-1H-1,2,4-triazol-1-yl)phenoxy)pyridin-2-yl)-3-(hydroxymethyl)azetidine-3-carbonitrile], the IC50 under setting [3] lay within 100 to 1000 nM.
Same read-out and setting: the result for `Nc1cc(Oc2ccc(-n3ncn(Cc4c(F)cccc4F)c3=O)cc2F)c(F)cn1` [Example 223, 2-(4-((2-amino-5-fluoropyridin-4-yl)oxy)-3-fluorophenyl)-4-(2,6-difluorobenzyl)-2,4-dihydro-3H-1,2,4-triazol-3-one] reads 100 to 1000 nM.
Take `Cc1nc(C(N)=O)sc1Oc1ccc(-n2ncn(Cc3c(F)cccc3F)c2=O)cc1F` [Example 559, 5-(4-(4-(2,6-difluorobenzyl)-5-oxo-4,5-dihydro-1H-1,2,4-triazol-1-yl)-2-fluorophenoxy)-4-methylthiazole-2-carboxamide]: under setting [2], the IC50 is below 100 nM.
The same measure, in the same setting: the result for `CCOC(=O)c1ocnc1Oc1ccc(-n2ncn(Cc3c(F)cccc3F)c2=O)cc1F` [Example 534, ethyl 4-(4-(4-(2,6-difluorobenzyl)-5-oxo-4,5-dihydro-1H-1,2,4-triazol-1-yl)-2-fluorophenoxy)oxazole-5-carboxylate] reads below 100 nM.
